US20130217122A1, “Expansion of Interferon-Gamma-Producing T-Cells Using Glypican-3 Peptide Library” (The Trustees of the University of Pennsylvania, priority 2012, published 2013)

Key:
CD8+ T-cells [1] = format: cell-based, human
HLA-A2.1 = HLA-A2.1 (Homo sapiens, UniProt P04439, D140Y/D185E/D98H/E176V/E277Q/G131W/G231S/I119V/I121R/I166T/I218V/L300P/L318F/N151K/N90K/P208A/P217A/Q86G/Q94H/R138H/R169H/T345S); experiment: T2 binding assay; settings: 9-10 mer epitopes
CD8+ T-cells [2] = format: cell-based, human; remark: listed apart in the source
[3] = molecular target: T1, human HLA-A2.1 on T2 cells (human); experiment: T2 binding assay (HLA-A2 on T2 cells, flow cytometry)
T1 construct: whole, on cells; Empty or peptide-receptive HLA-A2.1 on TAP-deficient T2 cells; also called HLA-A*0201; class I MHC molecules

In the case of “CINGVCWTV [NS3 1073, reference compound]”, the “Median pentamer+/CD8+ cells (range)” value (CD8+ T-cells [1]) is reported as 0.07 (0.03-0.10) %, the “No. with pentamer + cluster” value (CD8+ T-cells [1]) is reported as 2 (29) and the “No. with pentamer + cluster (%)” value (CD8+ T-cells [1]) is reported as 2 (29) %.

“ELFDSLFPV [GPC3 169-178, peptide and HLA-A2.1 pentamer loaded with it]” was tested, and the “binding affinity of optimum HLA-A2-binding epitopes” value (shortened to “binding affinity”) (HLA-A2.1) was “strong binding affinity”, the “Median pentamer+/CD8+ cells (range)” value (CD8+ T-cells [1]) was 1.00 (0.20-1.60) % and the “No. with pentamer + cluster” value (CD8+ T-cells [1]) was 5 (63). For the same molecule, the “No. with pentamer + cluster (%)” value (CD8+ T-cells [1]) was 5 (63) %.

For “FEFVGEFFTD [GPC3 142-151, peptide and HLA-A2.1 pentamer loaded with it]”, the “binding affinity” value (HLA-A2.1) was “strong binding affinity”, the “Median pentamer+/CD8+ cells (range)” value (CD8+ T-cells [1]) was 0.47 (0.03-0.90) % and the “No. with pentamer + cluster” value (CD8+ T-cells [1]) was 2 (22). The “No. with pentamer + cluster (%)” value (CD8+ T-cells [1]) was 2 (22) %.

For “GILGFTFVL [Flu matrix, reference compound]”, the “Median pentamer+/CD8+ cells (range)” value (CD8+ T-cells [1]) was 0.40 (0.30-1.30) %, the “No. with pentamer + cluster” value (CD8+ T-cells [1]) was 5 (56) and the “No. with pentamer + cluster (%)” value (CD8+ T-cells [1]) was 5 (56) %.

For “KLLTSMAISV [GPC3 563-572, peptide and HLA-A2.1 pentamer loaded with it]”, the “binding affinity” value (HLA-A2.1) was “strong binding affinity”, the “Median pentamer+/CD8+ cells (range)” value (CD8+ T-cells [1]) was 0.45 (0.05-1.60) % and the “No. with pentamer + cluster” value (CD8+ T-cells [1]) was 4 (44). The “No. with pentamer + cluster (%)” value (CD8+ T-cells [1]) was 4 (44) % and the “PD-1 expression in pentamer-positive versus pentamer-negative CD8+ T-cells” value (CD8+ T-cells [1]) was “strong trend”.

In the case of LMLGEFLKL [SurlM2, reference compound], the “Median pentamer+/CD8+ cells (range)” value (CD8+ T-cells [1]) is reported as 0.20 (0.20-0.20) %, the “No. with pentamer + cluster” value (CD8+ T-cells [1]) is reported as 1 (11) and the “No. with pentamer + cluster (%)” value (CD8+ T-cells [1]) is reported as 1 (11) %.

For “RLQPGLKWV [GPC3 44-52, peptide and HLA-A2.1 pentamer loaded with it]”, the “binding affinity” value (HLA-A2.1) was “strong binding affinity”, the “Median pentamer+/CD8+ cells (range)” value (CD8+ T-cells [1]) was 0.20 (0.10-0.30) % and the “No. with pentamer + cluster” value (CD8+ T-cells [1]) was 3 (33). The “No. with pentamer + cluster (%)” value (CD8+ T-cells [1]) was 3 (33) %, the “PD-1 expression in pentamer-positive versus pentamer-negative CD8+ T-cells” value (CD8+ T-cells [1]) was “significantly greater” and the “IFNγ secretion by expanded cells restimulated with cognate antigens” value (CD8+ T-cells [2]) was “minimal-to-absent”. The “expansion of pentamer-specific CD8+ T-cells” value (CD8+ T-cells [2]) was “readily detectable expansion”.

For “SLTPQAFEFV [GPC3 136-145, peptide and HLA-A2.1 pentamer loaded with it]”, the “binding affinity” value (HLA-A2.1) was “strong binding affinity”, the “Median pentamer+/CD8+ cells (range)” value (CD8+ T-cells [1]) was 0.70 (0.05-1.30) % and the “No. with pentamer + cluster” value (CD8+ T-cells [1]) was 4 (50). The “No. with pentamer + cluster (%)” value (CD8+ T-cells [1]) was 4 (50) %.

B1: Glypican-3 563-572 (KLLTSMAISV) (peptide)
peptide: KLLTSMAISV
notes: Synthetic 10 mer of human glypican-3 (NP-004475); also called GPC3 563-572; GPC3563-572
B1: binds [3].

B2: Glypican-3 169-177 (ELFDSLFPV) (peptide)
peptide: ELFDSLFPV
notes: Synthetic 9 mer of human glypican-3 (NP-004475); also called GPC3 169-177; GPC3169-177
B2: binds [3].

B3: Glypican-3 44-52 (RLQPGLKWV) (peptide)
peptide: RLQPGLKWV
notes: Synthetic 9 mer of human glypican-3 (NP-004475); also called GPC3 44-52; GPC344-52
B3: binds [3].

B4: Glypican-3 142-151 (FEFVGEFFTD) (peptide)
peptide: FEFVGEFFTD
notes: Synthetic 10 mer of human glypican-3 (NP-004475); also called GPC3 142-151; GPC3142-151
B4: binds [3].
